The numbers were not newly measured in PMC11372459 (Acta Pharmaceutica Sinica. B, 2024), which cites them from elsewhere.

The test system of the series is Gram-positive bacteria.

For the substance “Nisin (ITSISLCTPGCKTGALMGCNMKTATCHCSIHVSK; not fully specified; Lantibiotic nisin-A; UniProt P13068 24-57, looked up)”, the antibacterial spectrum entry is listed as “specific activity against Gram-positive bacteria”.
